# The source made the active and inactive calls. The rule behind the calls is not given here.
# Key:
# SK-OV-3 [1] = experiment: Antiproliferative activity against human SK-OV-3 cells assessed as inhibition of cell viability measured after 48 hrs by CCK8 assay; type: functional, cell-based; details: SK-OV-3, 48 h
# A2780 [2] = experiment: Synergistic antiproliferative activity against human A2780 cells assessed as combination index for reduction of cell viability in presence of olaparib by CCK8 assay; type: functional
# A2780 [3] = experiment: Antitumor activity against human A2780 cells xenografted in BALB/c mouse assessed as decrease in tumor volume at 5 to 15 mg/kg, ip administered every other day for 2 weeks; type: functional, organism-based; details: dose 5-15 mg/kg
# A2780 [4] = experiment: Antitumor activity against human A2780 cells xenografted in BALB/c mouse assessed as decrease in tumor weight at 5 to 15 mg/kg, ip administered every other day for 2 weeks; type: functional, organism-based; details: dose 5-15 mg/kg
# A2780 [5] = experiment: Downregulation of EMT signalling in human A2780 cells assessed as upregulation of E-cadherin protein expression at 10 uM by western blot analysis; type: functional, cell-based
# A2780 [6] = experiment: Downregulation of EMT signalling in human A2780 cells assessed as downregulation of N-cadherin protein expression at 10 uM by western blot analysis; type: functional, cell-based
# SK-OV-3 [7] = experiment: Downregulation of EMT signalling in human SK-OV-3 cells assessed as downregulation of vimentin protein expression at 10 uM by western blot analysis; type: functional, cell-based
# SK-OV-3 [8] = experiment: Potentiation of olaparib sensitivity in human SK-OV-3 cells assessed as downregulation of EMT signaling by measuring downregulation of vimentin protein expression at 10 uM in presence of olaparib by western blot analysis; type: functional, cell-based
# A2780 [9] = experiment: Inhibition of cell invasion in human A2780 cells at 10 uM measured after 48 hrs by Transwell assay; type: functional, cell-based
# SK-OV-3 [10] = experiment: Inhibition of cell invasion in human SK-OV-3 cells at 10 uM measured after 48 hrs by Transwell assay; type: functional, cell-based
# A2780 [11] = experiment: Potentiation of olaparib sensitivity in human A2780 cells assessed as inhibition of cell invasion at 10 uM measured after 48 hrs in presence of olaparib by Transwell assay; type: functional, cell-based
# A2780 [12] = experiment: Inhibition of cell migration in human A2780 cells at 10 uM measured after 24 to 48 hrs by wound healing assay; type: functional, cell-based; details: time 24-48 hrs
# A2780 [13] = experiment: Potentiation of olaparib sensitivity in human A2780 cells assessed as inhibition of cell migration at 10 uM measured after 24 to 48 hrs in presence of olaparib by wound healing assay; type: functional, cell-based; details: time 24-48 hrs
# SK-OV-3 [14] = experiment: Potentiation of olaparib sensitivity in human SK-OV-3 cells assessed as inhibition of cell migration at 10 uM measured after 24 to 48 hrs in presence of olaparib by wound healing assay; type: functional, cell-based; details: time 24-48 hrs
# A2780 [15] = experiment: Effect on FHL1 mRNA expression in human A2780 cells at 5 to 20 uM by real-time PCR analysis; type: functional, cell-based; details: dose 5-20 µM
# SK-OV-3 [16] = experiment: Increase in FHL1 protein stability in human SK-OV-3 cells at 10 uM measured after 6 to 24 hrs in presence of cycloheximide by CHX chase assay based western blot analysis; type: functional, cell-based; details: time 6-24 hrs
# A2780 [17] = experiment: Downregulation of EMT signalling in human A2780 cells transfected with shFHL1-2 RNA assessed as E-cadherin protein expression at 10 uM by western blot analysis; type: functional, cell-based
# SK-OV-3 [18] = experiment: Downregulation of EMT signalling in human SK-OV-3 cells transfected with shFHL1-1 RNA assessed as N-cadherin protein expression at 10 uM by western blot analysis; type: functional, cell-based
# SK-OV-3 [19] = experiment: Downregulation of EMT signalling in human SK-OV-3 cells transfected with shFHL1-2 RNA assessed as N-cadherin protein expression at 10 uM by western blot analysis; type: functional, cell-based
# SK-OV-3 [20] = experiment: Inhibition of cell invasion in human SK-OV-3 cells transfected with shFHL1-1 RNA at 10 uM measured after 48 hrs by Transwell assay; type: functional, cell-based
# SK-OV-3 [21] = experiment: Inhibition of cell invasion in human SK-OV-3 cells transfected with shFHL1-2 RNA at 10 uM measured after 48 hrs by Transwell assay; type: functional, cell-based
# A2780 [22] = experiment: Inhibition of cell migration in human A2780 cells transfected with shFHL1-1 RNA at 10 uM measured after 24 to 48 hrs by wound healing assay; type: functional, cell-based; details: time 24-48 hrs
# A2780 [23] = experiment: Inhibition of cell migration in human A2780 cells transfected with shFHL1-2 RNA at 10 uM measured after 24 to 48 hrs by wound healing assay; type: functional, cell-based; details: time 24-48 hrs
# SK-OV-3 [24] = experiment: Inhibition of cell migration in human SK-OV-3 cells transfected with shFHL1-1 RNA at 10 uM measured after 24 to 48 hrs by wound healing assay; type: functional, cell-based; details: time 24-48 hrs
# SK-OV-3 [25] = experiment: Inhibition of cell migration in human SK-OV-3 cells transfected with shFHL1-2 RNA at 10 uM measured after 24 to 48 hrs by wound healing assay; type: functional, cell-based; details: time 24-48 hrs
# A2780 [26] = experiment: Potentiation of olaparib sensitivity in human A2780 cells transfected with shFLH1-1 RNA assessed as downregulation of EMT signaling by measuring N-cadherin protein expression at 10 uM in presence of olaparib by western blot analysis; type: functional, cell-based
# A2780 [27] = experiment: Potentiation of olaparib sensitivity in human A2780 cells transfected with shFLH1-1 RNA assessed as downregulation of EMT signaling by measuring vimentin protein expression at 10 uM in presence of olaparib by western blot analysis; type: functional, cell-based
# A2780 [28] = experiment: Potentiation of olaparib sensitivity in human A2780 cells transfected with shFLH1-2 RNA assessed as downregulation of EMT signaling by measuring E-cadherin protein expression at 10 uM in presence of olaparib by western blot analysis; type: functional, cell-based
# A2780 [29] = experiment: Potentiation of olaparib sensitivity in human A2780 cells transfected with shFHL1-1 RNA assessed as inhibition of cell invasion at 10 uM measured after 48 hrs in presence of olaparib by Transwell assay; type: functional, cell-based
# A2780 [30] = experiment: Potentiation of olaparib sensitivity in human A2780 cells transfected with shFHL1-2 RNA assessed as inhibition of cell invasion at 10 uM measured after 48 hrs in presence of olaparib by Transwell assay; type: functional, cell-based
# SK-OV-3 [31] = experiment: Potentiation of olaparib sensitivity in human SK-OV-3 cells transfected with shFHL1-2 RNA assessed as inhibition of cell migration at 10 uM measured after 24 to 48 hrs in presence of olaparib by wound healing assay; type: functional, cell-based; details: time 24-48 hrs
# A2780 [32] = experiment: Potentiation of olaparib-induced antitumor activity against shNC RNA-transfected human A2780 cells xenografted in BALB/c mouse assessed as decrease in tumor volume at 15 mg/kg, ip co-administered with olaparib for 2 weeks; type: functional, organism-based
# Mus musculus [33] = experiment: Potentiation of olaparib sensitivity in BALB/c mouse xenografted with shFHL1-1 RNA-transfected human A2780 cells assessed as upregulation of E-cadherin protein expression in tumor at 15 mg/kg, ip co-administered with olaparib for 2 weeks by western blot analysis; type: functional, organism-based
# Mus musculus [34] = experiment: Potentiation of olaparib sensitivity in BALB/c mouse xenografted with shFHL1-1 RNA-transfected human A2780 cells assessed as downregulation of N-cadherin protein expression in tumor at 15 mg/kg, ip co-administered with olaparib for 2 weeks by western blot analysis; type: functional, organism-based
# Mus musculus [35] = experiment: Potentiation of olaparib sensitivity in BALB/c mouse xenografted with shFHL1-1 RNA-transfected human A2780 cells assessed as downregulation of vimentin protein expression in tumor at 15 mg/kg, ip co-administered with olaparib for 2 weeks by western blot analysis; type: functional, organism-based
structure (smiles),measurement,setting,value
CC[C@]12C=CCN3CC[C@]4(C(=C(C(=O)OC)C1)Nc1ccccc14)[C@@H]32 [TABERSONINE],IC50,SK-OV-3 [1],25 µM
same,CI,A2780 [2],<1
same,Activity,A2780 [3],Active
same,Activity,A2780 [4],Active
same,inhibition,A2780 [5],Active
same,inhibition,A2780 [6],Active
same,inhibition,SK-OV-3 [7],Active
same,Activity,SK-OV-3 [8],Active
same,inhibition,A2780 [9],Active
same,inhibition,SK-OV-3 [10],Active
same,Activity,A2780 [11],Active
same,inhibition,A2780 [12],Active
same,Activity,A2780 [13],Active
same,Activity,SK-OV-3 [14],Active
same,Activity,A2780 [15],inactive
same,Activity,SK-OV-3 [16],Active
same,inhibition,A2780 [17],inactive
same,inhibition,SK-OV-3 [18],inactive
same,inhibition,SK-OV-3 [19],inactive
same,inhibition,SK-OV-3 [20],inactive
same,inhibition,SK-OV-3 [21],inactive
same,inhibition,A2780 [22],inactive
same,inhibition,A2780 [23],inactive
same,inhibition,SK-OV-3 [24],inactive
same,inhibition,SK-OV-3 [25],inactive
same,Activity,A2780 [26],inactive
same,Activity,A2780 [27],inactive
same,Activity,A2780 [28],inactive
same,Activity,A2780 [29],inactive
same,Activity,A2780 [30],inactive
same,Activity,SK-OV-3 [31],inactive
same,Activity,A2780 [32],Active
same,Activity,Mus musculus [33],inactive
same,Activity,Mus musculus [34],inactive
same,Activity,Mus musculus [35],inactive

# — ChEMBL document CHEMBL5385929, “Tabersonine Enhances Olaparib Sensitivity through FHL1-Mediated Epithelial-Mesenchymal Transition in an Ovarian Tumor” (J Nat Prod, 2024)
